According to PMC9386018, “A lymphatic-absorbed multi-targeted kinase inhibitor for myelofibrosis therapy” (Nature Communications, 2022):
“And” between values parts separate entries of the source, which are not always exact repeats. Equal entries are not always repeated.

Assays:
[1] = biological target: T1, Target kinase isoforms (PI3K, mTOR, RAF, MEK) (Homo sapiens, UniProt O00329); test: Target kinase isoforms 10-point IC50 determination (Supplementary Fig. 7); assay type: biochemical; conditions: PI3K delta
T1 sequence (O00329 1-1044): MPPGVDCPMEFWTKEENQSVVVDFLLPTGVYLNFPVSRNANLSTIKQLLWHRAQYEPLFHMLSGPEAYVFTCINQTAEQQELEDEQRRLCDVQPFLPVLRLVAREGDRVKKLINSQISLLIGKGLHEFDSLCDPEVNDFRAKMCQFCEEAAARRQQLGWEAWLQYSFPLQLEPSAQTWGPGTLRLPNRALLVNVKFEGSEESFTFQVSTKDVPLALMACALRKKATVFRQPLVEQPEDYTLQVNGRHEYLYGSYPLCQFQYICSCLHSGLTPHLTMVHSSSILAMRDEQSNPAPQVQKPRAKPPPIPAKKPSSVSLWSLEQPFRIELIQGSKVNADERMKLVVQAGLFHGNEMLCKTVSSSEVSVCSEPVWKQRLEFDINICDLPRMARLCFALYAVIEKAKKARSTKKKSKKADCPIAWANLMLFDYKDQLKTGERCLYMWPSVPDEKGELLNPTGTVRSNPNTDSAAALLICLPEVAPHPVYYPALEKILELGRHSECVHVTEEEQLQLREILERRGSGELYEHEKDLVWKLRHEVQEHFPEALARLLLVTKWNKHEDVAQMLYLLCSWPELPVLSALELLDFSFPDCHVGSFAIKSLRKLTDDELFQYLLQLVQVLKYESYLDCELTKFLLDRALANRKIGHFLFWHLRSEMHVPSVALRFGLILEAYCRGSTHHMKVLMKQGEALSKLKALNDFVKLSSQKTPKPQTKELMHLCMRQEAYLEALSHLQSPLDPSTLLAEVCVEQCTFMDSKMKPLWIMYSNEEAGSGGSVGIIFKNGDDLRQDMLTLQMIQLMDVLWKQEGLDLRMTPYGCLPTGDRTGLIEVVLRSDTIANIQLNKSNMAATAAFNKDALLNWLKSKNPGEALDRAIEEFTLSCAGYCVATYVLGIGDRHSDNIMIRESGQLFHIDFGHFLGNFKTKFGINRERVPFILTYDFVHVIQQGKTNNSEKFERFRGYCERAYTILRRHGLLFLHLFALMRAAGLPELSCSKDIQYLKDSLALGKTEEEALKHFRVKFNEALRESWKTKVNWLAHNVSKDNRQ
Summary of the method: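 Kinase activity across a 10-point dose series was corrected and normalized to vehicle-treated controls. IC50 values were derived by non-linear regression of percent activity. Kinome-wide percent inhibition was averaged over replicates.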

mTOR = mTOR (Homo sapiens, UniProt P42345); test: Target kinase 10-point inhibition assay, mTOR; assay type: biochemical; conditions: replicates
mTOR, sequence (P42345 1360-2549 limits assumed): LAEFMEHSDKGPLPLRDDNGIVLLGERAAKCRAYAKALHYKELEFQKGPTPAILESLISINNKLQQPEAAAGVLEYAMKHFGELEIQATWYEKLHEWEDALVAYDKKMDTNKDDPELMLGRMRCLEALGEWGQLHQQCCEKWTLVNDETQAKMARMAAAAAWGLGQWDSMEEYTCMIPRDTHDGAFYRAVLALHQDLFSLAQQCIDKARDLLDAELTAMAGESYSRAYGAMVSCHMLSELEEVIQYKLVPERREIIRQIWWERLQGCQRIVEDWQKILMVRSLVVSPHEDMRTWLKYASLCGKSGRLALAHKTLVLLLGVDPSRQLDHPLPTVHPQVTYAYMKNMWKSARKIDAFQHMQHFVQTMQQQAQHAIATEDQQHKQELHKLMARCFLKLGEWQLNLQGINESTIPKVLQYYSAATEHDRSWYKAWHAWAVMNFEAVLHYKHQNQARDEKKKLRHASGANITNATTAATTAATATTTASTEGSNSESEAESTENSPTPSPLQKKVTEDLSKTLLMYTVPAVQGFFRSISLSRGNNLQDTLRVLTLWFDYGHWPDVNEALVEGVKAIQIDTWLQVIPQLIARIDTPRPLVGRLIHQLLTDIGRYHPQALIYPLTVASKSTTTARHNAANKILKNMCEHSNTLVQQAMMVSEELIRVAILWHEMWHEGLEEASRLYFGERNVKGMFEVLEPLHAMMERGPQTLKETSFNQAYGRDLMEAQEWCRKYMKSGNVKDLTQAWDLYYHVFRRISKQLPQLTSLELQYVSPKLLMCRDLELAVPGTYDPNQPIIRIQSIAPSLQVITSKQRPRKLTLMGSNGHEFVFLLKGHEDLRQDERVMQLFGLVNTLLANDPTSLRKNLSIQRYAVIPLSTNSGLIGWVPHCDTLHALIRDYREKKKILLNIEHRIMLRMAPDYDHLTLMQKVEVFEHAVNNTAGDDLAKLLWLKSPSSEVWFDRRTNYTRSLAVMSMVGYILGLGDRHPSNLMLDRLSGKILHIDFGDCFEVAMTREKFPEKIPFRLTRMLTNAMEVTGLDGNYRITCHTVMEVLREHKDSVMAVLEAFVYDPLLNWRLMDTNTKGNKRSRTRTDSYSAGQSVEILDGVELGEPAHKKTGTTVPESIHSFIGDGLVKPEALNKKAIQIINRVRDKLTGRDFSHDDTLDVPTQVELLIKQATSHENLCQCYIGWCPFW
Protocol: (§1) Quantitation of kinase inhibition was carried out by Life Technologies (Madison, WI) using the SelectScreen profiling platforms Z’-LYTE^TM and Adapta^TM. Single-point broad panel kinome screening was performed at 2.5 µM LP-182 against all kinases within the Z’-LYTE^TM and Adapta^TM assays (321 kinase isoforms, holoenzymes, or mutant variants). The average percent kinase inhibition from replicate data was ranked low to high, converted to a compatible identifier format, then input into Coral Human Kinome Visualization software for presentation analysis. […] Scaling of evolutionary distance for PI kinases is only relative and is based on literature analysis[62],[63]. Average percent kinome inhibition values from replicate data are supplied in Source Data file. […]. Corrected data was normalized to vehicle treated control values, and dose response percent kinase activity was analyzed by non-linear regression for determination of IC50 values.

SET-2 cells = test: SET-2 proliferation assay (CellTiter-Fluor); assay type: cell-based, human; conditions: 72 h
Protocol: Viable cells were counted by CellTiter-Fluor Assay (Promega) according to manufacturer’s protocol, and all fluorescence values were corrected by a no-cell control. […] Caspase activity was measured by Caspase-Glo 3/7 assay (Promega) according to the manufacturer’s protocol, and all luminescence values were corrected by a no-cell control. Dose response proliferation and Caspase activation data was normalized to vehicle treated control cells and analyzed by non-linear regression for determination of IC50 values. Data was generated from n = 3 independent experiments performed in replicate.

PI3Kγ = PI3Kγ (Homo sapiens, UniProt P48736); test: Target kinase 10-point inhibition assay, PI3Kγ; assay type: biochemical; conditions: PI3K gamma, replicates
PI3Kγ, sequence (P48736 whole entry): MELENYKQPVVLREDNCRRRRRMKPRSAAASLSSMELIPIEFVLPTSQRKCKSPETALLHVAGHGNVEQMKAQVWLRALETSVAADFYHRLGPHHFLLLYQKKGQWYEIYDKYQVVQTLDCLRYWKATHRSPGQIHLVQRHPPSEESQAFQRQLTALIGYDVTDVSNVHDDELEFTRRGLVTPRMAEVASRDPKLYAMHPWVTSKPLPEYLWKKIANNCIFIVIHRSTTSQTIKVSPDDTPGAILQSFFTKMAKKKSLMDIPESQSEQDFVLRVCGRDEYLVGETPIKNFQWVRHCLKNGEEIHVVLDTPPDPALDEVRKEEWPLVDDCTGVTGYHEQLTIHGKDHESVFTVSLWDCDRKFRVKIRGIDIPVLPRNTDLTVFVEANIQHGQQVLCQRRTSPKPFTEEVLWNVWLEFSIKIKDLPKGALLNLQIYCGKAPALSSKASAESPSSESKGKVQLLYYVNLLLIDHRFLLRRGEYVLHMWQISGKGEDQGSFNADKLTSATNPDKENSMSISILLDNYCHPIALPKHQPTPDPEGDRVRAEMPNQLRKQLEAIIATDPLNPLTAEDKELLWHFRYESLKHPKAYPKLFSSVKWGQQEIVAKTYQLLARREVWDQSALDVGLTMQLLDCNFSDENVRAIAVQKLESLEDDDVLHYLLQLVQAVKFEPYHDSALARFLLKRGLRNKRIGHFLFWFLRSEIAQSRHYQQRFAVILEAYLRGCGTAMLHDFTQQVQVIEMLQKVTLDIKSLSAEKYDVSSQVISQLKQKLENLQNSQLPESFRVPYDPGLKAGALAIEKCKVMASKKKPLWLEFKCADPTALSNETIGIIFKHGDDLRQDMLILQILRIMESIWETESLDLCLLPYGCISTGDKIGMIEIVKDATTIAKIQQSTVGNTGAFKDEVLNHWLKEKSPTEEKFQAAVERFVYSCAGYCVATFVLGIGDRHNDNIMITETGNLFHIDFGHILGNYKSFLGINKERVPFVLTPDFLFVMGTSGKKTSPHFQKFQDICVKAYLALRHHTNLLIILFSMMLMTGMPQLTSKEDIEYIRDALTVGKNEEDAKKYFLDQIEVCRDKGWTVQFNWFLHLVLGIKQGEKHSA
Protocol: as §1

[2] = system: Caspase 3/7 activity in SET-2 cells; test: SET-2 Caspase activation assay (Caspase-Glo 3/7); assay type: cell-based, human; conditions: 48 h; for Relative Caspase activation: normalized to vehicle, replicates
Protocol: Viable cells were counted by CellTiter-Fluor Assay (Promega) according to manufacturer’s protocol, and all fluorescence values were corrected by a no-cell control. For Caspase activation assays, SET-2 cells were cultured for 48 h at 10^6 cells mL^−1 with various concentration of LP-182 or vehicle (DMSO). Caspase activity was measured by Caspase-Glo 3/7 assay (Promega) according to the manufacturer’s protocol, and all luminescence values were corrected by a no-cell control. Dose response proliferation and Caspase activation data was normalized to vehicle treated control cells and analyzed by non-linear regression for determination of IC50 values. Data was generated from n = 3 independent experiments performed in replicate.

**Q.** With `O=C(NOCCOCCOCCOCCC(=O)N1CCN(c2cnc3ccc(-c4cnc(Cl)c(NS(=O)(=O)c5ccc(F)cc5)c4)cc3n2)CC1)c1ccc(F)c(F)c1Nc1ccc(I)cc1F` [LP-182, N-(2-(2-(2-(3-(4-(7-(6-chloro-5-((4-fluorophenyl)sulfonamido)pyridin-3-yl)quinoxalin-2-yl)piperazin-1-yl)-3-oxopropoxy)ethoxy)ethoxy)ethoxy)-3,4-difluoro-2-((2-fluoro-4-iodophenyl)amino)benzamide] as the compound, how does the “Kinase Activity (%) PI3K delta” value ([1]; concentration 0.0187 nM, 18.7 pM) read?
**A.** 95% and 92% and 102% and 111% and 107%

**Q.** What about the “Kinase Activity (%) PI3K delta” value ([1]; concentration 0.0562 nM, 56.2 pM) of the same compound?
**A.** 105% and 92% and 107% and 113% and 96%

**Q.** And the activity at 0.000495 µM ([1]; concentration 0.495 nM)?
**A.** 83%

**Q.** And the activity at 0.00152 µM ([1]; concentration 1.52 nM)?
**A.** 71%

**Q.** What about the “Kinase Activity (%) PI3K delta” value ([1]; concentration 4.57 nM, 0.00457 µM) of the same compound?
**A.** 44%

**Q.** What about the “Kinase Activity (%) PI3K delta” value ([1]; concentration 1110 nM, 1.11 µM) of the same compound?
**A.** 6% and 2% and 7% and 4%

**Q.** And the activity at 3.33 µM ([1]; concentration 3330 nM)?
**A.** 5%

**Q.** What about the “Kinase Activity (%) PI3K delta” value ([1]; concentration 3330 nM, 3.33 µM) of the same compound?
**A.** 6%

**Q.** What about the “Kinase Activity (%) PI3K delta” value ([1]; concentration 10000 nM, 10 µM) of the same compound?
**A.** 6% and 8% and 0% and 10% and 7%

**Q.** And the activity at 0.000495 µM (mTOR; 0.495 nM)?
**A.** 95%

**Q.** What about the “Kinase Activity (%)” value (mTOR; 0.495 nM, 0.000495 µM) of the same compound?
**A.** 99% and 98% and 101% and 94% and 96%

**Q.** And the activity at 0.00152 µM (mTOR; 1.52 nM)?
**A.** 97%

**Q.** And the “Kinase Activity (%)” value (mTOR; 1.52 nM, 0.00152 µM)?
**A.** 99% and 100% and 94% (2×)

**Q.** And the activity at 0.00457 µM (mTOR; 4.57 nM)?
**A.** 91%

**Q.** And the “Kinase Activity (%)” value (mTOR; 4.57 nM, 0.00457 µM)?
**A.** 92% and 94% and 87% and 88%

**Q.** And the activity at 0.0412 µM (mTOR; 41.2 nM)?
**A.** 52%

**Q.** And the “Kinase Activity (%)” value (mTOR; 41.2 nM, 0.0412 µM)?
**A.** 63% and 57% (2×) and 47% (2×)

**Q.** And the activity at 0.123 µM (mTOR; 123 nM)?
**A.** 29%

**Q.** And the “Kinase Activity (%)” value (mTOR; 123 nM, 0.123 µM)?
**A.** 30% (2×) and 32% and 31%

**Q.** What about the activity at […] (mTOR; 370 nM) of the same compound?
**A.** 13%

**Q.** And the “Kinase Activity (%)” value (mTOR; 1110 nM, 1.11 µM)?
**A.** 4% and 3% (2×) and 5% and 1% and 2%

**Q.** What about the “Kinase Activity (%)” value (mTOR; 3330 nM, 3.33 µM) of the same compound?
**A.** 0% (4×) and -1% and -2%

**Q.** And the “Kinase Activity (%)” value (mTOR; 10000 nM, 10 µM)?
**A.** 2% and -1% (4×) and 1%

**Q.** What about the “Growth (%)” value (SET-2 cells; 0.15625 µM, replicates (Fig. 2d)) of the same compound?
**A.** 82.3145% and 74.8007% and 92.2424% and 95.23%

**Q.** And the “Growth (%)” value (SET-2 cells; 0.3125 µM, replicates (Fig. 2d))?
**A.** 82.5275% and 93.6976% and 99.8925% and 94.4152% and 100.311% and 101.419%

**Q.** What about the “Growth (%)” value (SET-2 cells; 0.625 µM, replicates (Fig. 2d)) of the same compound?
**A.** 75.7591% and 84.1959% and 99.0777% and 114.242% and 99.4809% and 107.316%

**Q.** And the “Growth (%)” value (SET-2 cells; LP-182 0.625 µM, replicates)?
**A.** 94.49% and 102.748% and 105.532% and 109.611% and 111.9% and 115.3% and 97.84% and 53.1792% and 80% and 77.2254% and 41.1561% and 108.317%

**Q.** And the “Growth (%)” value (SET-2 cells; LP-182 5 µM, replicates)?
**A.** 88.52% and 52.137% and 67.274% and 67.1508% and 90.41% and 85.13% and 85.23% and 51.3295% and 50.867% (2×) and 75.3757% and 52.71%

**Q.** What about the “Growth (%)” value (SET-2 cells; LP-182 10 µM, replicates) of the same compound?
**A.** 67.22% and 40.3515% and 41.5713% and 43.4811% and 65.18% and 66.4% and 66.22% and 0% and 7.399% and 24.9711% (2×) and 44.7503%

**Q.** What about the “Growth (%)” value (SET-2 cells; LP-182 20 µM, replicates) of the same compound?
**A.** 33.48% and 38.226% and 25.5964% and 32.3363% and 26.13% and 25.92% and 25.14% and 0% (4×) and 25.7197%

**Q.** And the “Growth (%)” value (SET-2 cells; LP-182 40 µM, replicates)?
**A.** 13.5% and 29.145% and 27.7897% and 24.9557% and 14.69% and 13.53% and 12.78% and 0% (4×) and 22.7255%

**Q.** And the IC50 (SET-2 cells; Homo sapiens, read-out: IC50, inhibition of cellular proliferation)?
**A.** 7.6 ± 0.82 µM

**Q.** What about the “Kinase Activity (%)” value (PI3Kγ; 0.495 nM, 0.000495 µM) of the same compound?
**A.** 106% and 101% and 126% and 100% and 96% and 89% and 105% and 98%

**Q.** What about the “Kinase Activity (%)” value (PI3Kγ; 1.52 nM, 0.00152 µM) of the same compound?
**A.** 108% and 97% and 115% and 123% and 99% (2×) and 105% and 90% and 88% and 93%

**Q.** And the “Kinase Activity (%)” value (PI3Kγ; 4.57 nM, 0.00457 µM)?
**A.** 89% and 94% (2×) and 106% and 98% and 93% and 87% and 82% and 77% and 92%

**Q.** And the “Kinase Activity (%)” value (PI3Kγ; 41.2 nM, 0.0412 µM)?
**A.** 50% (2×) and 48% and 43% and 55% and 47% and 37% and 30% and 31% and 32%

**Q.** And the activity at 0.123 µM (PI3Kγ; 123 nM)?
**A.** 20%

**Q.** And the “Kinase Activity (%)” value (PI3Kγ; 123 nM, 0.123 µM)?
**A.** 21% (3×) and 25% and 22% and 19% and 16% (2×) and 13%

**Q.** What about the activity at […] (PI3Kγ; 370 nM) of the same compound?
**A.** 6%

**Q.** And the “Kinase Activity (%)” value (PI3Kγ; 1110 nM, 1.11 µM)?
**A.** 1% (4×) and 4% and 0% and 2% (2×) and 3% (2×)

**Q.** What about the “Kinase Activity (%)” value (PI3Kγ; 3330 nM, 3.33 µM) of the same compound?
**A.** 0% (9×) and 1%

**Q.** What about the “Kinase Activity (%)” value (PI3Kγ; 10000 nM, 10 µM) of the same compound?
**A.** 4% and 0% (8×) and 2%

**Q.** What about the “apoptotic cell death (Caspase activation)” value [2] of the same compound?
**A.** initiated apoptotic cell death

**Q.** And the “Relative Caspase activation” value ([2]; LP-182 5 µM)?
**A.** 1.094 and 1.105 and 1.123 and 1.124 and 1.108 and 1.081

**Q.** And the “Relative Caspase activation” value ([2]; LP-182 10 µM)?
**A.** 1.411 and 1.334 and 1.453 and 1.372 and 1.41 and 1.477

**Q.** What about the “Relative Caspase activation” value ([2]; LP-182 20 µM) of the same compound?
**A.** 1.934 and 1.9571 and 1.914 and 1.975 and 2.004 and 1.977

**Q.** What about the “Relative Caspase activation” value ([2]; LP-182 40 µM) of the same compound?
**A.** 2.054 and 1.793 and 2.072 and 2.115 and 2.193 and 2.206
